# Results: patent US20180327723A1, “Production of Glycosylated Nootkatol in Recombinant Hosts” (Evolva SA, priority 2015, published 2018)
# Columns and labels:
# [1] = In vitro de-glycosylation of nootkatol-glucoside by glycosidase enzymes, LC-MS; assay type: biochemical; settings: water control, Delft fermentation medium, 2 hours
# Experimental: Identical samples of 990 μl of Delft fermentation medium further comprising 0.1 mg nootkatol-glucoside (Nootkatol-Glc) were each treated with 10 μl of 12 exemplary glycosidase enzymes (listed in Table 3 below) (thus, 1% v/v) for 2 hours. After 2 hours, samples of the reaction mixture were taken, and the de-glycosylation reaction was terminated by addition of an equal volume of ethanol followed by freezing.
# The resulting digested samples were analyzed by LC-MS on a BEH C18-column (100 mm×2.1 mm, 5 μm). Mobile phase A was 0.1% formic acid in water, and mobile phase B was 0.1% formic acid in acetonitrile. B concentration gradient was 0-1 min, 1%; 1-5 min, 100%; 5-7 min, 100%; 7-7.1 min, 1%; 7.1-9 min, 1%. The injection volume was 5 μL. Mass spectrometry analysis was carried out on an SQD1 detector (3.4 KV capillary, 37 V cone, 3 V extractor, 0.1 V RF lens) at a source temperature of 150° C. and desolvation temperature of 250° C., with full scan ESI+/−(100-900 amu scan range) and selective ion recording.
# [2] = test system: wild-type MATa strain ATCC 28383; test: Growth-inhibitory effect on yeast, cell viability by plating (CFU); assay type: cell-based, S. cerevisiae; settings: 0.5 g/L, 5 h of exposure, plated on YPD
# Experimental: A 20 mL seed culture of wild-type MATa strain ATCC 28383 was grown in SD-THUL medium (0.67 Bacto yeast nitrogen base without amino acids, 2% glucose, 0.14% yeast synthetic drop-out medium without uracil, tryptophan, histidine and leucine). The culture was grown for 24 h, and 2.5 mL of the culture was used to inoculate 7 equal batches of 50 mL fermentation medium (2% (NH4)2SO4, 2% KH2PO4, 0.1% NaCl, 0.6% MgSO4.7H2O, 0.4% yeast extract, 1 mL mineral solution [FeSO4.7H2O 0.028%, ZnSO4.7H2O 0.029%, CuSO4.5H2O 0.008%, Na2MoO4.2H2O 0.024%, CoCl2.6H2O 0.024%, MnSO4.H2O 0.017%, HCl 1 mL], 0.5 mL 50% glucose, 1.5 mL vitamin solution [biotin 0.001%, Ca-pantothenate 0.012%, inositol 0.06%, pyridoxine-HCl 0.012%, thiamine-HCl 0.012%], and 0.5 mL 10% CaCl2) in 250 mL baffled Ehrlenmeyer flasks.
# In 6 flasks, nootkatol or glycosylated nootkatol (nootkatol+1 glucose) were added in final concentrations of 0.06, 0.125, and 0.5 g/L. The 7th flask was used as a control and was not treated with nootkatol or glycosylated nootkatol. The cultures were grown at 28° C. and 170 rpm, and the cell viability was measured after 5 h of exposure by plating 100 μL of 1/1000 dilution of cell culture on yeast extract peptone dextrose (YPD) plates.
structure (smiles),measurement,setting,value
C=C(C)C1CCC2=CC(OC3OC(CO)C(O)C(O)C3O)CC(C)C2(C)C1 (centres unmarked) [glycosylated nootkatol],spontaneous de-glycosylation,[1],weak spontaneous de-glycosylation
same,toxicity (cell viability),[2],no toxicity was observed
